# Data reported in patent US10160724B2, “Tetrahydropyridine derivatives and their use as antibacterial agents” (Dong-A St Co., Ltd., priority 2016, dated 2018).
# Legend:
# Assay in all cases: In vitro antibiotic activity, agar dilution method (Mueller-Hinton agar, NCCLS)
# Type in all cases: cell-based
# E. coli ATCC 25922 = conditions: Escherichia coli, ATCC25922; agar dilution, Mueller-Hinton agar; read-out: MIC for E. coli ATCC 25922
# Protocol: (§1) To measure the antibiotic activity of the compounds prepared by Examples, antibiotic activity test in vitro was performed by agar dilution method using Mueller-Hinton agar according to the NCCLS (National Committee for Clinical Laboratory Standards. 2000. Methods for dilution antimicrobial susceptibility tests for bacteria that grow aerobiocally. Approved standard, NCCLS document M7-M5, 5th ed, vol 20, no 2. National Committee for Clinical Laboratory Standards, Wayne, Pa.). The test strain was Escherichia coli (ATCC 25922), Klebsiella pneumonia (ATCC 29665) and Pseudomonas aeriginosa (PAO1).
# K. pneumoniae ATCC 29665 = conditions: Klebsiella pneumoniae, ATCC29665; agar dilution, Mueller-Hinton agar; read-out: MIC for K. pneumoniae ATCC 29665
# Protocol: as §1
# P. aeruginosa PAO1 = conditions: Pseudomonas aeruginosa, PAO1; agar dilution, Mueller-Hinton agar; read-out: MIC for P. aeruginosa PAO1
# Protocol: as §1
SMILES,MIC (E. coli ATCC 25922) [µg/mL],MIC (K. pneumoniae ATCC 29665) [µg/mL],MIC (P. aeruginosa PAO1) [µg/mL]
"CC(CCN1CC=C(c2ccc(-c3ccccc3)cc2)CC1)(C(=O)NO)S(C)(=O)=O (stereo not drawn) [Example 56, 4-(4-([1,1′-biphenyl]-4-yl)-3,6-dihydropyridin-1(2H)-yl)-N-hydroxy-2-methyl-2-(methylsulfonyl)butanamide]",< 1,< 1,8 to 16
"CC(CCN1CC=C(c2ccc(C#CC3CN(S(C)(=O)=O)C3)cc2)CC1)(C(=O)NO)S(C)(=O)=O (stereo not drawn) [Example 41, N-hydroxy-2-methyl-2-(methylsulfonyl)-4-(4-(4-((1-(methylsulfonyl)azetidin-3-yl)ethynyl)phenyl)-3,6-dihydropyridin-1(2H)-yl)butanamide]",1 to 8,8 to 16,8 to 16
"COc1ccsc1-c1ccc(C2=CCN(CCC(C)(C(=O)NO)S(C)(=O)=O)CC2)cc1.Cl (stereo not drawn) [Example 71, N-hydroxy-4-(4-(4-(3-methoxythiophen-2-yl)phenyl)-3,6-dihydropyridin-1(2H)-yl)-2-methyl-2-(methylsulfonyl)butanamide hydrochloride]",< 1,< 1,> 16
"CN(C)CC#Cc1c(F)cc(C2=CCN(CCC(C)(C(=O)NO)S(C)(=O)=O)CC2)cc1F (stereo not drawn) [Example 32, 4-(4-(4-(3-(dimethylamino)prop-1-yn-1-yl)-3,5-difluorophenyl)-3,6-dihydropyridin-1(2H)-yl)-N-hydroxy-2-methyl-2-(methylsulfonyl)butanamide]",< 1,1 to 8,1 to 8
"CC(CCN1CC=C(c2ccc(C#Cc3ccc([N+](=O)[O-])cc3)cc2)CC1)(C(=O)NO)S(C)(=O)=O (stereo not drawn) [Example 35, N-hydroxy-2-methyl-2-(methylsulfonyl)-4-(4-(4-((4-nitrophenyl)ethynyl)phenyl)-3,6-dihydropyridin-1(2H)-yl)butanamide]",> 16,> 16,> 16
"CC(CCN1CC=C(c2ccc(-c3ccc(CO)cc3)cc2)CC1)(C(=O)NO)S(C)(=O)=O (stereo not drawn) [Example 65, N-hydroxy-4-(4-(4′-(hydroxymethyl)-[1,1′-biphenyl]-4-yl)-3,6-dihydropyridin-1(2H)-yl)-2-methyl-2-(methylsulfonyl)butanamide]",< 1,8 to 16,> 16
"CN(C)CC#Cc1ccc(C2=CCN(CCC(C)(C(=O)NO)S(C)(=O)=O)CC2)cc1F (stereo not drawn) [Example 31, 4-(4-(4-(3-(dimethylamino)prop-1-yn-1-yl)-3-fluorophenyl)-3,6-dihydropyridin-1(2H)-yl)-N-hydroxy-2-methyl-2-(methylsulfonyl)butanamide]",< 1,1 to 8,1 to 8
"CC(CCN1CC=C(c2ccc(C#CCOC(N)=O)cc2)CC1)(C(=O)NO)S(C)(=O)=O (stereo not drawn) [Example 26, 3-(4-(1-(4-(hydroxyamino)-3-methyl-3-(methylsulfonyl)-4-oxobutyl)-1,2,3,6-tetrahydropyridin-4-yl)phenyl)prop-2-yn-1-yl carbamate]",1 to 8,8 to 16,1 to 8
"Cn1cnc(C#Cc2ccc(C3=CCN(CCC(C)(C(=O)NO)S(C)(=O)=O)CC3)cc2)c1 (stereo not drawn) [Example 38, N-hydroxy-2-methyl-4-(4-(4-((1-methyl-1H-imidazol-4-yl)ethynyl)phenyl)-3,6-dihydropyridin-1(2H)-yl)-2-(methylsulfonyl)butanamide]",< 1,1 to 8,1 to 8
"CC(CCN1CC=C(c2ccc(C#CCN3CCCC3)cc2)CC1)(C(=O)NO)S(C)(=O)=O (stereo not drawn) [Example 15, N-hydroxy-2-methyl-2-(methylsulfonyl)-4-(4-(4-(3-(pyrrolidin-1-yl)prop-1-yn-1-yl)phenyl)-3,6-dihydropyridin-1(2H)-yl)butanamide]",1 to 8,8 to 16,1 to 8
"CC(CCN1CC=C(c2ccc(C#Cc3ccccc3)cc2)CC1)(C(=O)NO)S(C)(=O)=O (stereo not drawn) [Example 2, N-hydroxy-2-methyl-2-(methylsulfonyl)-4-(4-(4-(phenylethynyl)phenyl)-3,6-dihydropyridin-1(2H)-yl)butanamide]",< 1,1 to 8,1 to 8
"CC(CCN1CC=C(c2ccc(-c3ccc(F)cc3)cc2)CC1)(C(=O)NO)S(C)(=O)=O (stereo not drawn) [Example 58, 4-(4-(4′-fluoro-[1,1′-biphenyl]-4-yl)-3,6-dihydropyridin-1(2H)-yl)-N-hydroxy-2-methyl-2-(methylsulfonyl)butanamide]",< 1,1 to 8,> 16
